Data as given in patent US20240109893A1, “PREPARATION AND APPLICATION METHOD OF HETEROCYCLIC COMPOUNDS AS KRAS INHIBITOR” (SHANGHAI KECHOW PHARMA, INC., priority 2020, published 2024).

Tested on: H358 cells
Assay: Cell activity experiment: activity test of H358 cells (MTT, 5 days)
Type: cell-based
Details: 5 days incubation, absorbance 492 nm
Outline: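 H358 cells seeded 90 μL at 55555 cells/mL, grown 24 h, then exposed to 3-fold serial compound dilutions (final top 10000 nM, 0.5% DMSO) in triplicate for 5 days at 37° C., 5% CO2. Viability by MTT (4 h), formazan dissolved in DMSO, absorbance at 492 nm.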

| IC50 | Compound |
| --- | --- |
| 429 nM | C=CC(=O)N1CCN(c2nc(OC[C@@H]3CCCN3C)nc3c(F)c(-c4cccc5c4CC4CC54)ncc23)C[C@@H]1CC#N (single isomer, unassigned) [Example 874] |

Same assay, conditions: Homo sapiens, NCI-H358, 120 h, 5 days incubation, absorbance 492 nm

| IC50 | Compound |
| --- | --- |
| 31 nM | C=C(F)C(=O)N1CCN(c2nc(OCC34CCCN3CCC4)nc3nc(-c4cccc5cccc(Cl)c45)ccc23)C[C@@H]1CC#N [Example 259, (S)-2-(4-(7-(8-chloronaphthalen-1-yl)-2-((tetrahydro-1H-pyrrolizin-7a(5H)-yl)methoxy)pyridino[2,3-d]pyrimidin-4-yl)-1-(2-fluoroacryloyl)piperazin-2-yl)acetonitrile] |
| 158 nM | C=CC(=O)N1CCN(c2nc(OC[C@@H]3CCCN3C)nc3cc(-c4cccc5cccc(Cl)c45)c(F)cc23)C[C@@H]1CC#N [Example 394, 2-((S)-1-acryloyl-4-(6-fluoro-7-(8-chloronaphthalen-1-yl)-2-(((S)-1-methylpyrrolidin-2-yl)methoxy)quinazolin-4-yl)piperazin-2-yl)acetonitrile] |
| 0.2 nM | C=CC(=O)N1CCN(c2nc(OC[C@@]34CCCN3C[C@H](F)C4)nc3c(F)c(-c4cccc5c4[C@@H]4C[C@@H]4C5)ncc23)C[C@@H]1CC#N [Example 71] |
| 8 nM | C=C(F)C(=O)N1CCN(c2nc(OCC34CCCN3C[C@H](F)C4)nc3cc(-c4cncc5cccc(Cl)c45)ccc23)C[C@@H]1CC#N (stereo partly shown) [Example 133] |
| 140 nM | C=CC(=O)N1CCN(c2nc(OC[C@@H]3CCCN3C)nc3c(F)c(-c4cccc5c4CCOC5)ncc23)C[C@@H]1CC#N [Example 50, 2-((S)-1-acryloyl-4-(8-fluoro-7-(isochroman-5-yl)-2-(((S)-1-methylpyrrolidin-2-yl)methoxy)pyridino[4,3-d]pyrimidin-4-yl)piperazin-2-yl)acetonitrile] |
| 120 nM | C=C(F)C(=O)N1CCN(c2nc(OC[C@@H]3C[C@@H](F)CN3C)nc3c(F)c(-c4ccc(F)c5c4CCCC5)ncc23)C[C@@H]1CC#N [Example 20] |
| 30 nM | C=C(F)C(=O)N1CCN(c2nc(OC[C@@]34CCCN3C[C@H](F)C4)nc3c(F)c(-c4cncc5c4CCCC5)ncc23)C[C@@H]1CC#N [Example 40] |
| 80 nM | C=C(F)C(=O)N1CCN(c2nc(OC[C@@H]3CCCN3C)nc3cc(-c4cncc5c4CCCC5)ccc23)C[C@@H]1CC#N [Example 143] |
| 16 nM | C=CC(=O)N1CC[C@@H]2[C@H]1CN2c1nc(OC[C@@H]2C[C@@H](F)CN2C)nc2c(F)c(-c3cncc4c3CCCC4)ncc12 [Example 43] |
| 150 nM | C=C(F)C(=O)N1CCN(c2nc(OC[C@@H]3CCCN3C)nc3c(F)c(-c4cccc5c4[C@H]4C[C@H]4C5)ncc23)C[C@@H]1CC#N [Example 57, 2-((S)-4-(8-fluoro-2-(((S)-1-methylpyrrolidin-2-yl)methoxy)-7-((1aS,6aS)-1,1a,6,6a-tetrahydrocyclopropa[a]inden-2-yl)pyridino[4,3-d]pyrimidin-4-yl)-1-(2-fluoroacryloyl)piperazin-2-yl)acetonitrile] |
| 40 nM | C=C(F)C(=O)N1CC[C@@H]2[C@H]1CN2c1nc(OC[C@@H]2CCCN2C)nc2c(F)c(-c3ccc(F)c4c3CCCC4)ncc12 [Example 26] |
| 12 nM | C=C(F)C(=O)N1CCN(c2nc(OCC34CCCN3CCC4)nc3cc(-c4cccc5cccc(Cl)c45)ccc23)C[C@@H]1CC#N [Example 82, (S)-2-(4-(7-(8-chloronaphthalen-1-yl)-2-((tetrahydro-1H-pyrrolizin-7a(5H)-yl)methoxy)quinazolin-4-yl)-1-(2-fluoroacryloyl)piperazin-2-yl)acetonitrile] |
| 8 nM | C=CC(=O)N1CCN(c2nc(OC[C@@]34CCCN3C[C@H](F)C4)nc3c(F)c(-c4cncc5c4CCCC5)ncc23)C[C@@H]1CC#N [Example 39] |
| 30 nM | C=CC(=O)N1CCN(c2nc(OC[C@@H]3CCCN3C)nc3cc(-c4cccc5c4C4CC4C5)ccc23)C[C@@H]1CC#N (stereo partly shown) [Example 536] |
| 15 nM | C=C(F)C(=O)N1CCN(c2nc(OC[C@@]34CCCN3C[C@H](F)C4)nc3c(F)c(-c4ccc(F)c5c4CCCC5)ncc23)C[C@@H]1CC#N [Example 24] |
